Test results published in the supplement of paper PMC10307832.

Assays:
Assay in all cases: relative viability (nuclei count vs DMSO), 5 days (fraction); higher = more cells survive
[1] = compound: C1CC(C2=C(C1)C3=C(N2)C=CC(=C3)Cl)C(=O)N [Selisistat] + COc1cc2c(Oc3ccc(NC(=O)C4(C(=O)Nc5ccc(F)cc5)CC4)cc3F)ccnc2cc1OCCCN1CCOCC1 [Foretinib] (partner 0.25 µM)
In short: (§1)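 Relative viability divides the nuclei count in treated wells by that in vehicle wells. Lung cancer cell lines were seeded in 1536-well plates, dosed by pin tool the next day, and fixed and stained after 5 days in one step with final 0.05% Triton X-100, 1% formaldehyde and 1 ug/ml Hoechst. Dosing was a single drug or a fixed anchor-drug dose plus five library-drug doses (not always all listed) in √10 steps, and values are medians of duplicate plates imaged at 4×.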

[2] = compound: C1CC(C2=C(C1)C3=C(N2)C=CC(=C3)Cl)C(=O)N [Selisistat] + CS(=O)(=O)CCNCc1ccc(-c2ccc3ncnc(Nc4ccc(OCc5cccc(F)c5)c(Cl)c4)c3c2)o1 [Lapatinib] (partner 2 µM)
In short: as §1

[3] = compound: c1ccc2c(CCNc3ccc(Nc4ccncc4)cc3)c[nH]c2c1 [Serdemetan] + COc1cccc2cc(-c3nc([C@H]4CC[C@H](C(=O)O)CC4)n4ncnc(N)c34)[nH]c12 [OSI-027] (partner 0.5 µM)
In short: as §1

[4] = compound: c1ccc2c(CCNc3ccc(Nc4ccncc4)cc3)c[nH]c2c1 [Serdemetan] + NC(=O)Nc1cc(-c2cccc(F)c2)sc1C(=O)N[C@H]1CCCNC1 [AZD7762] (partner 0.2 µM)
In short: as §1

Cell Line | relative viability ([1]; first compound 0.4 µM) | relative viability ([1]; first compound 1.265 µM) | relative viability ([1]; first compound 4 µM) | relative viability ([1]; first compound 12.65 µM) | relative viability ([1]; first compound 40 µM) | relative viability ([2]; first compound 0.4 µM) | relative viability ([2]; first compound 1.265 µM) | relative viability ([2]; first compound 4 µM) | relative viability ([2]; first compound 12.65 µM) | relative viability ([2]; first compound 40 µM) | relative viability ([3]; first compound 0.04 µM) | relative viability ([3]; first compound 0.1265 µM) | relative viability ([3]; first compound 0.4 µM) | relative viability ([3]; first compound 1.265 µM) | relative viability ([3]; first compound 4 µM) | relative viability ([4]; first compound 0.04 µM) | relative viability ([4]; first compound 0.1265 µM) | relative viability ([4]; first compound 0.4 µM) | relative viability ([4]; first compound 1.265 µM) | relative viability ([4]; first compound 4 µM)
H3255 | 0.863 | 0.9 | 0.837 | 0.84 | 0.767 | 0.225 | 0.263 | 0.123 | 0.245 | 0.271 | 0.587 | 0.675 | 0.613 | 0.573 | 0.518 | 0.826 | 0.601 | 0.733 | 0.832 | 0.792
HARA | 0.865 | 0.905 | 0.773 | 0.839 | 0.512 | 0.726 | 0.691 | 0.71 | 0.778 | 0.904 | 0.528 | 0.703 | 0.395 | 0.274 | 0.304 | 0.298 | 0.196 | 0.266 | 0.23 | 0.304
HCC-15 | 1.21 | 0.996 | – | 1.05 | 1.21 | 0.878 | 0.864 | – | 0.867 | 1.01 | 0.643 | 0.75 | 0.624 | 0.452 | 0.522 | 0.952 | 1.49 | 1.23 | 0.72 | 1.07
HCC-78 | 0.497 | 0.567 | 0.414 | 0.562 | 0.592 | 0.811 | 0.891 | 0.448 | 0.589 | 0.658 | 0.401 | 0.297 | 0.321 | 0.308 | 0.289 | 0.578 | 0.571 | 0.514 | 0.589 | 0.503
HCC-366 | 0.837 | 0.892 | 0.755 | 0.862 | 0.957 | 1.09 | 0.977 | 0.899 | 0.971 | 1.07 | 0.87 | 0.858 | 0.733 | 0.173 | 0.122 | 0.124 | 0.0954 | 0.0688 | 0.0374 | 0.0632
HCC-827 | 1.17 | 1.09 | 1.02 | 0.9 | 1.08 | 0.192 | 0.189 | 0.203 | 0.182 | 0.186 | 0.787 | 0.743 | – | 0.696 | 0.627 | 0.218 | 0.157 | – | 0.18 | 0.17
HOP-62 | 1.09 | 1.19 | 1.17 | 0.97 | 1.12 | 0.974 | 1.03 | 0.96 | 0.884 | 1.14 | 0.869 | 0.842 | 0.856 | 0.71 | 0.758 | 0.762 | 0.544 | 0.731 | 0.519 | 0.49
LC-2-ad | 1.14 | – | 0.706 | 0.918 | 0.889 | 1.01 | 0.968 | 0.803 | 0.833 | 1.04 | 0.716 | 0.85 | 0.877 | 0.659 | 0.763 | 0.806 | 0.836 | 0.791 | 0.737 | 0.709
LCLC-97TM1 | 0.861 | 0.849 | – | 0.907 | 0.862 | 0.779 | 1.12 | 0.86 | 0.928 | 1.32 | 0.371 | 0.553 | 0.412 | – | 0.528 | 0.304 | 0.232 | 0.255 | 0.184 | 0.211
LK-2 | 0.955 | 1.04 | 1.45 | 0.955 | 1.01 | 0.858 | 0.749 | 0.701 | 0.935 | 1.05 | 0.205 | 0.23 | 0.216 | 0.193 | 0.214 | 0.454 | 0.304 | 0.357 | 0.269 | 0.251
LOU-NH91 | 1.01 | 0.938 | 0.872 | 0.928 | 0.896 | 0.753 | 0.741 | 0.741 | 0.762 | 0.758 | 0.703 | 0.681 | 0.456 | 0.692 | 0.784 | 0.768 | 0.746 | – | – | 0.79
LU99A | 0.825 | 0.744 | 0.774 | 0.773 | 0.801 | 1.06 | 0.913 | 1.06 | 0.914 | 0.962 | 0.282 | 0.313 | 0.275 | 0.216 | 0.29 | 0.315 | 0.347 | 0.212 | 0.117 | 0.14
LXF-289 | 1.03 | 1.02 | 0.868 | 0.947 | 0.997 | 0.913 | 0.949 | 0.926 | 0.864 | 0.921 | 0.802 | 0.847 | 0.811 | 0.691 | 0.729 | 1.07 | 1.11 | 1.07 | 0.982 | 0.846
NCI-H23 | 0.579 | 0.779 | 0.805 | 0.935 | 0.565 | 1.16 | 1.06 | – | 1.24 | 1 | 0.636 | 0.702 | 0.607 | 0.43 | 0.531 | 0.274 | 0.235 | 0.261 | – | 0.208
NCI-H322M | 0.953 | 1.01 | 0.884 | 1.13 | 1.11 | 0.595 | 0.562 | – | 0.623 | 0.561 | 0.52 | 0.56 | 0.681 | 0.509 | 0.422 | 0.565 | 0.573 | 0.533 | 0.524 | 0.43
NCI-H358 | 0.808 | 0.763 | 0.553 | 0.727 | 0.833 | 0.492 | 0.443 | – | 0.397 | 0.373 | 0.725 | 0.816 | 0.969 | 0.487 | 0.536 | 0.525 | 0.5 | 0.455 | 0.335 | 0.381
NCI-H460 | 1.01 | 0.969 | 0.967 | 1.01 | 1.05 | 0.909 | 0.952 | – | 0.903 | 0.911 | 0.61 | 0.691 | 0.641 | 0.342 | 0.0861 | 0.461 | 0.547 | 0.571 | 0.229 | 0.141
